Columns and labels:
[1] = test system: A375 cells; test: A375 cell proliferation assay (1), resazurin, 96-well; assay type: cell-based; details: Homo sapiens, A-375, inhibition of cell proliferation
Summary of the method: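 Viability was read by resazurin fluorescence at 540 nm excitation and 600 nm emission, using a 440 μM solution added for 5–6 h at the end of culture. IC50 came from the curve fit.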

[2] = biological target: T1, C-Raf kinase (Homo sapiens, UniProt P04049, Y340D/Y341D); test: Biochemical assay for C-Raf.1 (coupled pyruvate kinase/lactate dehydrogenase); details: read-out: CRAF.1 IC50
T1 construct: Y340D,; GST (N); purchased Sigma
T1 sequence (P04049 307-648 Y340D/Y341D): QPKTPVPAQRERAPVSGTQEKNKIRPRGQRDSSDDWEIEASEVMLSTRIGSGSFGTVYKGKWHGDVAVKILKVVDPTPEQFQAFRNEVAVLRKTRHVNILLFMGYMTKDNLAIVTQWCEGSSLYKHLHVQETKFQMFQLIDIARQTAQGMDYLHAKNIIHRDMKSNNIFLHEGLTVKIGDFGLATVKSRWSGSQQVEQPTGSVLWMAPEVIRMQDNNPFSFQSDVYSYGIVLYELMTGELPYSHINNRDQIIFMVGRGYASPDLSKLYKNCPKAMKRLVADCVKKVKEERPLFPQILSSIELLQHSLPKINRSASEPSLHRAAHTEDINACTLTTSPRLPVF
Summary of the method: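 NADH depletion at 340 nm monitored continuously for 6 h at 30° C, with rates taken over 4–5 h. The coupled pyruvate kinase/lactate dehydrogenase reaction used 1 mM ATP, 30.1 nM MEK substrate and 0.43 nM kinase at pH 7.5. IC50 was fitted sigmoidally from percent inhibition of serially diluted compound.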

[3] = biological target: T2, B-Raf (V600E) kinase (Homo sapiens, UniProt P15056, V600E); test: Biochemical assay for B-Raf (V600E).1 (coupled pyruvate kinase/lactate dehydrogenase); details: read-out: BRAF V600E.1 IC50
T2 construct: B-Raf (V600E) residues 416-766 with a; GST (N); purchased SignalChem
T2 sequence (P15056 416-766 V600E): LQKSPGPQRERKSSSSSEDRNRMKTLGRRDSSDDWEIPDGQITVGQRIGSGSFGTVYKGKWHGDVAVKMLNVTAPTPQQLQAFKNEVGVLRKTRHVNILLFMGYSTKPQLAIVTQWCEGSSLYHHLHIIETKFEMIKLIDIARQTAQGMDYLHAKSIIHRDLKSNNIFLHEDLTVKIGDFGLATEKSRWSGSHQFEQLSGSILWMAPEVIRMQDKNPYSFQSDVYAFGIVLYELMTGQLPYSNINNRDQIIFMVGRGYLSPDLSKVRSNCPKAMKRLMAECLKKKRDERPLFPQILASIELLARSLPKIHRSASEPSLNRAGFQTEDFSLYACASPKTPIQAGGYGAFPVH
Summary of the method: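 IC50 came from four-parameter sigmoidal fits of percent inhibition, using reaction rates over 3-4 h. Continuous A340 reading (6 h, 30 °C) of a pyruvate kinase/lactate dehydrogenase-coupled reaction: B-Raf V600E 0.03 nM, MEK 30.1 nM, ATP 1 mM, Tris pH 7.5, 1% DMSO.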

[4] = biological target: T3, B-Raf kinase (Homo sapiens, UniProt P15056); test: Biochemical assay for B-Raf.2 (coupled pyruvate kinase/lactate dehydrogenase); details: read-out: BRAF.2 IC50
T3 construct: GST (N); purchased Sigma
T3 sequence (P15056 416-766): as the sequence (P15056 416-766 V600E) above, with E185V counted along it
Protocol: Biochemical Assay for B-Raf.2
Activity of B-Raf kinase (SEQ. ID NO: 2) was determined spectroscopically using a coupled pyruvate kinase/lactate dehydrogenase assay that continuously monitors the ATP hydrolysis-dependent oxidation of NADH (e.g., Schindler et al., Science, 2000, 289, 1938-1942). Assays were conducted in 384-well plates (25 μL final volume) using 2 nM B-Raf (Sigma), 1.5 units pyruvate kinase, 2.1 units lactate dehydrogenase, 1 mM phosphoenol pyruvate, 0.7 mM NADH, 50 nM MEK (SignalChem), and 1 mM ATP in assay buffer (100 mM Tris, pH 7.5, 15 mM MgCl2, 0.5 mM DTT, 0.1% octyl-glucoside, 0.002% (w/v) BSA, and 0.002% Triton X-100). Inhibition of B-Raf was measured by adding serial diluted test compound (final assay concentration of 1% DMSO). A decrease in absorption at 340 nm was monitored hourly for 4 h at 30° C. on a multi-mode microplate reader (BioTek). The reaction rate was calculated using the 2 to 3 h time frame. The reaction rate at each concentration of compound was converted to percent inhibition using controls (i.e., reaction with no test compound and reaction with a known inhibitor) and IC50 values were calculated by fitting a four-parameter sigmoidal curve to the data using Prism (GraphPad software).

| Structure (SMILES) | IC50 [1] [nM] | IC50 [2] [nM] | IC50 [3] [nM] | IC50 [4] [nM] |
| --- | --- | --- | --- | --- |
| COC(C)(C)CCNC(=O)Nc1cc(-c2cc(OCCO)nc(-c3ccnc4[nH]ncc34)c2)c(C)cc1F [Example 91] | 500 to 1000 | ≤ 100 | ≤ 100 | – |
| COC(=O)Nc1cc(-c2cncc(-c3cc(NC(=O)N4CC[C@H](C(F)(F)F)C4)ccc3C)c2)ncn1 [Example 224] | 100 to 500 | – | – | ≤ 100 |
| CNC(=O)c1cc(-c2cncc(-c3cc(NC(=O)N4CC[C@H](C(F)(F)F)C4)ccc3C)c2)ccn1 [Example 228] | – | – | – | 100 to 500 |
| Cc1cc(F)c(NC(=O)N[C@@H]2CC[C@H](F)C2)cc1-c1cc(OCCO)nc(-c2ccnc3[nH]ncc23)c1 [Example 88] | 1000 to 10000 | 100 to 500 | ≤ 100 | – |
| CNC(=O)c1cc(-c2cc(-c3cc(NC(=O)N4CC[C@H](C(F)(F)F)C4)ccc3C)ccn2)ccn1 [Example 215] | 1000 to 10000 | – | – | 100 to 500 |
| Cc1cc(F)c(NC(=O)NCCC2(C)CC2)cc1-c1cc(OCCO)nc(-c2ccnc3[nH]ncc23)c1 [Example 87] | 100 to 500 | ≤ 100 | ≤ 100 | – |
| CNC(=O)c1cc(-c2cncc(-c3cc(NC(=O)N4CC[C@H](C(F)(F)F)C4)ccc3C)c2)ncn1 [Example 220] | – | – | – | 100 to 500 |
| CNC(=O)c1cc(-c2cncc(-c3cc(NC(=O)N4CC[C@H](C(C)C)C4)ccc3C)c2)ncn1 [Example 226] | – | – | – | 500 to 1000 |
| COC(C)(C)CCNC(=O)Nc1cc(-c2cc(OCCO)nc(-c3ccnc4[nH]ccc34)c2)c(C)cc1F [Example 90] | 1000 to 10000 | ≤ 100 | ≤ 100 | – |
| Cc1cc(F)c(NC(=O)N2CCC(C)(C#N)CC2)cc1-c1cc(OCCO)nc(-c2ccnc3[nH]ncc23)c1 [Example 92] | 1000 to 10000 | 100 to 500 | ≤ 100 | – |
| CNC(=O)c1cc(-c2cc(-c3cc(NC(=O)N4CC[C@H](C(C)C)C4)ccc3C)ccn2)ccn1 [Example 225] | – | – | – | 100 to 500 |
| COC(=O)Nc1cc(-c2cccc(-c3cc(NC(=O)NCCC(C)(C)OC)c(F)cc3C)c2)ccn1 [Example 85] | 100 to 500 | ≤ 100 | ≤ 100 | – |
| Cc1cc(F)c(NC(=O)NCC[C@@H]2CCO2)cc1-c1cc(OCCO)nc(-c2ccnc3[nH]ncc23)c1 [Example 89] | 1000 to 10000 | > 1000 | > 1000 | – |
| Cc1ccc(NC(=O)N2CC[C@H](C)C2)cc1-c1cncc(-c2cc(NC(=O)C3CC3)ncn2)c1 [Example 227] | – | – | – | ≤ 100 |
| CNC(=O)c1cc(-c2cncc(-c3cc(NC(=O)N4CC[C@H](C(C)C)C4)ccc3C)c2)ccn1 [Example 229] | – | – | – | 100 to 500 |
